Measured values from patent publication US11571484B2, “Compositions that target tumor-associated macrophages and methods of use therefor” (Sanford Burnham Prebys Medical Discovery Institute, priority 2017, dated 2023).

Experiments:
[1] = system: MEMs in B16F10 melanoma lung metastases; conditions: 30 nmoles i.v., 2 h
Experimental: (§1) Thirty nmoles of FAM-UNO or FAM-control peptide were injected intravenously into mice and allowed to circulate for 2 h. Mice were then sacrificed and tumor and tissues were analyzed by immunofluorescence using rabbit anti-FAM (green) and rat anti-CD206 (red) antibodies, and counterstained with DAPI. […] The metastases were induced by i.v. inoculation of B16F10 melanoma cells. […] Blue: DAPI. Representative fields from multiple sections (n≥3) prepared from at least 3 tumors are shown. Scale bar: 50 μm. Images shown are representative fields from multiple sections (≥3) prepared from at least 3 tumors (n≥3 mice). The graphs show mean+SEM of FAM signal quantified as described in Materials and Methods.
(§2) Tumor models were induced according to protocols approved by the Estonian Ministry of Agriculture, Committee of Animal Experimentation (permit #48). For the 4T1 breast model, 8-week old female Balb/c mice were injected in the mammary fat pad with 10^6 cells dispersed in 50 μL of PBS. For homing studies, mice were used 10 days later, when the tumor had reached ˜150 mm^3. For MCF-7 breast model, 8-week old female nude mice were implanted with an estrogen pellet, and 1 week later inoculated with 5×10^6 MCF-7 cells in 100 μL of cold Matrigel (BD Biosciences, CA, USA). Mice were used for homing studies three weeks later (tumor volume˜150 mm^3). For the metastatic gastric carcinoma, 10^6 MKN45-P cells in PBS were injected intraperitoneally in 8-week old female nude mice. Mice were used for homing studies two weeks later. For the metastatic melanoma model, 2×10^5 B16F10 cells were injected intravenously in 100 μL of PBS in C57 BL6 mice. The mice were used for homing studies 10 days after. […]
(§3) For free peptide homing studies, mice were injected intravenously with 30 nmoles of FAM-peptides in 100 μL of PBS. […] FAM was detected using Rabbit anti-FITC (Invitrogen, CA, USA. Catalog # A-889) at a dilution of 1/100 and using Alexa Fluor-546 anti-rabbit antibody (Invitrogen, Ca, USA. Catalog # A-11035) at a dilution of 1/200.

MEMs in MKN45-P tumors = conditions: 30 nmoles i.v., 2 h
Experimental: as §1, §2, §3

MEMs in WT-GBM tumors = test: Free peptide homing and immunofluorescence in the orthotopic WT-GBM glioblastoma model; conditions: 30 nmoles i.v., 2 h
Experimental: as §1
(§4) Tumor models were induced according to protocols approved by the Estonian Ministry of Agriculture, Committee of Animal Experimentation (permit #48). For the 4T1 breast model, 8-week old female Balb/c mice were injected in the mammary fat pad with 10^6 cells dispersed in 50 μL of PBS. For homing studies, mice were used 10 days later, when the tumor had reached ˜150 mm^3. For MCF-7 breast model, 8-week old female nude mice were implanted with an estrogen pellet, and 1 week later inoculated with 5×10^6 MCF-7 cells in 100 μL of cold Matrigel (BD Biosciences, CA, USA). Mice were used for homing studies three weeks later (tumor volume˜150 mm^3). For the metastatic gastric carcinoma, 10^6 MKN45-P cells in PBS were injected intraperitoneally in 8-week old female nude mice. Mice were used for homing studies two weeks later. For the metastatic melanoma model, 2×10^5 B16F10 cells were injected intravenously in 100 μL of PBS in C57 BL6 mice. The mice were used for homing studies 10 days after. For the angiogenic glioblastoma model, WT-GBM 24, 7×10^5 cells were stereotactically injected in the right striatum of Fox/Nu mice 2 mm lateral and posterior of bregma of 2.5 mm deep. The mice were used for homing studies 6-7 days after the injection.
For free peptide homing studies, mice were injected intravenously with 30 nmoles of FAM-peptides in 100 μL of PBS. For nanoparticle homing studies-FAM-UNO—NP-PTX-, mice were injected intravenously in mice bearing MCF-7 breast tumors with 1 mg of Polymer in 100 μL pf PBS and allowed to circulate for 6 h. For tissue collection, the mice were anesthetized and the tissues collected and immediately placed in 4% cold PFA and left overnight at 4-C. Tissues were washed with PBS for 2 h at room temperature and cryoprotected with sucrose 15% at 4-C overnight and then in sucrose 30% at 4·C overnight. […] FAM was detected using Rabbit anti-FITC (Invitrogen, CA, USA. Catalog # A-889) at a dilution of 1/100 and using Alexa Fluor-546 anti-rabbit antibody (Invitrogen, Ca, USA. Catalog # A-11035) at a dilution of 1/200.

[2] = system: MRC1/CD206-expressing tumor-associated macrophages (MEMs) in 4T1 tumors; test: Free peptide homing and immunofluorescence in the orthotopic 4T1 breast tumor model; conditions: 30 nmoles i.v., 2 h circulation
Experimental: (SEQ ID NO: 5) control peptide were injected intravenously into 4T1 tumor-bearing mice and allowed to circulate for 2 h. Mice were then sacrificed and tumor and tissues were analyzed by immunofluorescence using rabbit anti-FAM (green) and rat anti-CD206 or rat anti-TIE2 (red) antibodies, and counterstained with DAPI. All images were taken under the same imaging conditions. FAM-UNO accumulated in macrophages within tumors and lymph nodes positive for CD206 staining (A, B, C) and TIE2 (D, and H: Blow up of D). […] To ascertain that anti-CD206 is capable of detecting CD206 in the liver, an image was acquired with longer exposure time from an uninjected animal (FIG. 25). […] Green: FAM-peptide; Red: CD206 or TIE2, Blue: DAPI. Representative fields from multiple sections prepared from at least 3 tumors (n≥3 mice) are shown.
as §4
For free peptide homing studies, mice were injected intravenously with 30 nmoles of FAM-peptides in 100 μL of PBS. For nanoparticle homing studies-FAM-UNO—NP-PTX-, mice were injected intravenously in mice bearing MCF-7 breast tumors with 1 mg of Polymer in 100 μL pf PBS and allowed to circulate for 6 h. For tissue collection, the mice were anesthetized and the tissues collected and immediately placed in 4% cold PFA and left overnight at 4-C. Tissues were washed with PBS for 2 h at room temperature and cryoprotected with sucrose 15% at 4-C overnight and then in sucrose 30% at 4·C overnight. The tumor and the control organs were placed together in the same block with OCT compound (Leica Biosystems, Wetzlar, Germany), snap-frozen in isopentane, and sectioned at 10 μm. FAM was detected using Rabbit anti-FITC (Invitrogen, CA, USA. Catalog # A-889) at a dilution of 1/100 and using Alexa Fluor-546 anti-rabbit antibody (Invitrogen, Ca, USA. Catalog # A-11035) at a dilution of 1/200. CD31 was detected using rat anti-mouse CD31 (BD Biosciences, CA, USA. Catalog #: 553370), TIE2 was detected using rat anti-mouse TIE2 (Biolegend, CA, USA. Catalog #124001), CD209 was detected using rat anti-mouse CD209 (Biolegend, CA, USA. Catalog #147802), HLA ABC was detected using rat anti Human HLA ABC (Bio-Rad, CA, USA. Product code MCA485G), and CD206 was detected using ratanti-mouse CD206 (Bio-Rad, CA, USA. Product code MCA2235GA); using 1/100 primary antibody dilution and Alexa Fluor-647 anti-Rat antibody (Invitrogen, CA, USA. Catalog #21247) at 1/200 dilution. To quantify FAM signal from confocal images, the green channel of images taken by using 20× magnification objective was opened with ImageJ, converted to 8-bit grayscale and the integrated pixel intensity was measured. Different regions of tumors from three different mice were used.

RAW 267.4 cells = test: Phage biopanning on cultured CD206- RAW 267.4 macrophages; format: cell-based, mouse; conditions: phage-displayed peptide, 4 °C overnight
Experimental: A, Cultured RAW 267.4 mouse macrophages were fixed with PFA and stained with rat anti-CD206 (red) and counterstained with DAPI (blue). B, Phage display on RAW 267.4 cells. Cells were lifted using a cell scraper, centrifuged, brought to 4° C. and incubated with 0.5 mL of the same phage library used for the in vivo experiments (0.5 mL of 7×10^10 pfu/mL)+0.5 mL of DMEM, at 4° C. overnight. Cells were then washed four times resuspending in PBS and placing in a new tube every time, lastly the cells were suspended in LB+NP40%, lysed and phage insert were sequenced. The UNO clone is […] of the list (red). Only the top 50 hits from the screen are shown. Scale bar: 50 μm.
Mouse macrophage cell line Raw 267.4 (ATCC, VA, USA) was cultured in DMEM with FBS and antibiotics. Cells from a 25 cm^2 flask (˜3×10^6 cells) were lifted using a cell scraper, centrifuged, brought to 4. C and incubated with 0.5 mL of the same purified library used for the in vivo experiments (0.5 mL of 7×10^10 pfu/mL)+0.5 mL of DMEM, at 4-C overnight. Cells were then washed four times by re-suspending in PBS and placing them in a new tube every time, and finally suspended in LB+1% NP40, lysed and subjected to high throughput sequencing.

peritoneal macrophages = test: In vivo phage display on peritoneal cells of 4T1 tumor-bearing versus normal mice; parameters: species or system mouse; conditions: phage-displayed peptide
Experimental: A, Naive phage library was injected intraperitoneally in 4T1 tumor-bearing mice and age-matched normal mice, and allowed to circulate for two h. Peritoneal cells were collected, the accompanying phages were rescued and the peptide-encoding segment of phage DNA was sequenced. […] Peritoneal cells were extracted from the mice, seeded on coverslips, allowed to attach for 2 h, fixed, permeabilized, and stained for CD206. CD206+ cells were counted from 6 different confocal images, 2 from each mouse. C, Highly repeated sequences obtained from the first round of the biopanning experiment shown schematically in panel A. D, Frequency of phage clones encoding UNO or a randomly picked peptide (CIGVSSDC) divided by the total number of repeated sequences) in the 4T1 tumor-bearing and normal mice.
Ten days later, the 4T1 mouse and a Balb/c female mouse of the matched age, were injected with 500 μL of a 7×10^10 pfu/mL of purified CX7C long-circulating library that bears a mutation on the p17 protein of tail fiber^45. After 2 h the mice were anesthetized and peritoneal cells were collected, washed by centrifugation, and lysed by hand-held homogenizer in 2 mL of LB+NP40 1%. The phage was amplified in E. coli strain BLT5403 for high throughput sequencing of peptide encoding segment of the phage genomic DNA using Ion Torrent semiconductor sequencing system.
In vivo phage display was carried out on orthotopic breast cancer bearing mice as outlined in FIG. 1A. Compared to peritoneal cells of healthy mice, […] macrophages were ˜5-fold overrepresented in Balb/c mice bearing metastatic syngeneic 4T1 breast tumors (FIG. 1B). We hypothesized that a peptide that binds to peritoneal macrophages in tumor-bearing mice may also target M2-like TAMs. Mice with 4T1 tumors were injected intraperitoneally (i.p.) with a phage library expressing 9-amino acid cyclic CX7C peptides. After 2 h, peritoneal cells were collected, bound phages were rescued by amplification, and the resulting phage pool was subjected to high-throughput sequencing of the peptide-encoding segment of the phage genome. […]

Substance	homing to melanoma lung metastases [1]	accumulation in MEMs / CD206+ cells (MEMs in MKN45-P tumors)	accumulation in tumor (MEMs in WT-GBM tumors)	accumulation in tumor (MEMs in WT-GBM tumors; listed as FAM-Control peptide)	accumulation in MEMs / tumor homing [2]	position of the phage clone in the list of hits (RAW 267.4 cells)	overrepresentation of phage in peritoneal cells from 4T1 tumor-bearing mice versus healthy mice (peritoneal macrophages; library injected i.p., 2 h) [fold]	representation among sequenced phage clones (peritoneal macrophages; peritoneal cells of 4T1 tumor mice)
FAM-CRKQGEAKC: FAM-labeled control peptide CRKQGEAKC (SEQ ID NO: 5) of the same charge and molecular weight as FAM-UNO (not fully specified; FAM label) [reference compound]	Little to no	no accumulation was detected in CD206^+ cells	did not accumulate in the tumor	Little to no	no tumor homing	–	–	–
CSPGAKVRC [peptide codenamed UNO, identified by in vivo phage display]	–	–	–	–	–	2140	~10	most highly represented non-truncated peptide
